According to patent publication US6368788B1 (priority 1987, dated 2002):
Marks after values point to notes of the source that are not given here.

Columns and labels:
[1] = test system: antibiotic-resistant Staphylococci; assay: Chronic skin diseases caused by antibiotic-resistant Staphylococci (Protocol A2); assay type: in vivo, human
Wound healing = assay: Wound healing; parameters: species or system human; details: in vivo
Method: L-Glu-L-Trp was administered to 37 patients with wounds of various origins, types and localizations. Patients in the control group (24) received conventional treatments. L-Glu-L-Trp was administered daily im (or topically) on each of 10 consecutive days. The im dose was 100 μg.

[2] = test system: peripheral blood lymphocytes; assay: Chernobyl Protocol F: L-Glu-L-Trp at 3 years post-radiation exposure; assay type: in vivo, human
Method: An increased incidence of cancer is one sequelae known to occur in subjects exposed to radiation, presumably because of decreased immune surveillance and elimination of tumor cells. […] An attempt to normalize immune parameters was attempted in 70 of the latter patients exposed 3 years previously to 0.2-0.5 Gy of radiation at Chernobyl. […] The subjects were treated with L-Glu-L-Trp in an attempt to alleviate the immune defects. The treatment course consisted of daily doses of 100 μg L-Glu-L-Trp administered im for 3-5 days. Sixty three subjects, similarly exposed to radiation in Chernobyl were used as untreated controls.

[3] = test system: upper respiratory infections; assay: Prophylaxis of respiratory infections in polar explorers; assay type: in vivo, human; details: intranasal 1 μg/kg, 3 days
[4] = test system: peripheral blood lymphocytes; assay: Breast cancer patients after radiotherapy treated with L-Glu-L-Trp 100 μg im daily; assay type: in vivo, human
Method: Thirty six patients with breast cancer were treated with conventional radiation therapy (i.e., single doses of about 2-3 Gy daily for 10 days; total cumulative patient dose of 20-30 Gy). Following radiotherapy the patients were treated with L-Glu-L-Trp by injection of daily dosages im of 100 μg. The patients had been previously treated with radiation therapy (single doses 2 Gy; total dose 20-30 Gy).

Sarcoma 180 tumor = assay: Sarcoma 180 bilateral tumor size; assay type: in vivo, Swiss-Webster mice; details: for Mean Tumor Weight Left / Mean Tumor Weight Right: mean leg weight treated - normal control
Method: Anti-tumor activity of L-Glu-L-Trp was evaluated using the murine Sarcoma 180 tumor (ATCC CCL-8 CCRF S-180 II) injected at 2×10^6 cells/0.1 mL im into each rear flank of Swiss-Webster mice. Groups consisted of 10 animals. L-Glu-L-Trp was administered in a single 0.1 mL dose of either 10 μg/kg, 75 μg/kg, 250 μg/kg or 1000 μg/kg. Tumor size was evaluated by surgically removing and weighing the affected limbs, and comparing the weight with the weight of normal control (non-tumor) limbs. The first prophylactic drug regimen (PDR-1) consisted of 5 consecutive daily ip injections commencing on day -5 and ending of day -1. The second prophylactic drug regimen (PDR-2) consisted of 5 consecutive daily im injections to the left rear flank (tumor site) beginning on day -5 and ending on day -1. Sarcoma 180 cells were injected im on day 0. Saline 0.1 mL served as the negative control.

[5] = Thoracic cavity tumors: focal radiation therapy then L-Glu-L-Trp, clinical complications; assay type: in vivo, human; details: for Complications: Cardio-Pulm. / Complications: Mortality / Complications: Septic / Complications: Total: 5 × im 100 μg
Method: Surgical removal of thoracic tumors was followed in 38 patients by focal radiation therapy and then a course of L-Glu-L-Trp therapy consisting of 5 daily im injections of 100 μg L-Glu-L-Trp each. Only radiation therapy (and supportive antibiotic therapy) was administered as a control to 56 patients.

L-Glu-L-Trp
Clinical outcome ([1]; L-Glu-L-Trp then individualized antibiotic): complete recovery in all patients
Increase in antibiotic-sensitivity of the patients' Staphylococci ([1]; patients with secondary T-immunodeficiency): more than 100 fold
Clinical outcome (Wound healing): accelerated wound healing
B-Ig+, % ([2]; After L-Glu-L-Trp): 11.0 ± 0.3%
B-Ig+, abs ([2]; After L-Glu-L-Trp): 0.23 ± 0.04 10^9/L
B-IgA+, % ([2]; After L-Glu-L-Trp): 1.9 ± 0.3%
B-IgA+, abs ([2]; After L-Glu-L-Trp): 0.04 ± 0.002 10^9/L
B-IgG+, % ([2]; After L-Glu-L-Trp): 4.8 ± 0.5%
B-IgG+, abs ([2]; After L-Glu-L-Trp): 0.09 ± 0.007 10^9/L
B-IgM+, % ([2]; After L-Glu-L-Trp): 4.1 ± 0.6 %
B-IgM+, abs ([2]; After L-Glu-L-Trp): 0.12 ± 0.003** 10^9/L
CD2-DR+, % ([2]; After L-Glu-L-Trp): 32 ± 3 %
CD2-DR+, abs ([2]; After L-Glu-L-Trp): 0.66 ± 0.10** 10^9/L
CD3, % ([2]; After L-Glu-L-Trp): 59.2 ± 2.1 %
CD3, abs ([2]; After L-Glu-L-Trp): 1.21 ± 0.15 10^9/L
CD4, % ([2]; After L-Glu-L-Trp): 36.2 ± 1.7%
CD4, abs ([2]; After L-Glu-L-Trp): 0.74 ± 0.08 10^9/L
CD8, % ([2]; After L-Glu-L-Trp): 23.2 ± 2.1 %
CD8, abs ([2]; After L-Glu-L-Trp): 0.48 ± 0.07** 10^9/L
IgA ([2]; After L-Glu-L-Trp): 1.2 ± 0.4 g/L
IgG ([2]; After L-Glu-L-Trp): 10.9 ± 1.3 g/L
IgM ([2]; After L-Glu-L-Trp): 1.06 ± 0.06 g/L
LMI, % ([2]; After L-Glu-L-Trp): 75 ± 6 %
Leukocytes, abs ([2]; After L-Glu-L-Trp): 5.6 ± 0.4 10^9/L
Lymphocytes, abs ([2]; After L-Glu-L-Trp): 2.1 ± 0.3 10^9/L
T4/T8 ([2]; After L-Glu-L-Trp): 1.58 ± 0.04
Cases with restoration of CD2+ counts ([2]; in vivo): 85%
Clinical outcome ([2]; in vivo): disappearance of symptoms associated with the asthenic syndrome
Clinical outcome [3]: prevented the occurrence of upper respiratory infections
B-lymphocyte (Ig+) [4]: 0.17 ± 0.02 ×10^9/L
B-lymphocyte (Ig+), Ratio Post-Rad/Pre-Rad Value [4]: (1.1)
B-lymphocyte (Ig+), Ratio Post-Treat/Pre-Treat Value [4]: (1.55)
C3-complement [4]: 0.68 ± 0.04 g/L
DTH to tuberculin [4]: 8.7 ± 0.6 mm
DTH to tuberculin, Ratio Post-Rad/Pre-Rad Value [4]: (1.2)
Granulocyte Cation Proteins [4]: 1.49 ± 0.12
Granulocyte Phagocytic Index [4]: 3.7 ± 0.2
LMI with ConA [4]: 71 ± 5 %
Lymphocytes [4]: 1.72 ± 0.21 ×10^9/L
Lymphocytes, Ratio Post-Rad/Pre-Rad Value [4]: (1.1)
Lymphocytes, Ratio Post-Treat/Pre-Treat Value [4]: (2.18)
OKT4+/OKT8+ [4]: 1.86 ± 0.17
T-Lymphocytes [4]: 0.92 ± 0.12 ×10^9/L
T-helpers (OKT4+) [4]: 0.39 ± 0.04 ×10^9/L
T-helpers (OKT4+), Ratio Post-Rad/Pre-Rad Value [4]: (1.3)
T-helpers (OKT4+), Ratio Post-Treat/Pre-Treat Value [4]: (3.25)
T-lymphocytes, Ratio Post-Rad/Pre-Rad Value [4]: (1.1)
T-lymphocytes, Ratio Post-Treat/Pre-Treat Value [4]: (2.88)
T-suppressors (OKT8+) [4]: 0.21 ± 0.03 ×10^9/L
T-suppressors (OKT8+), Ratio Post-Rad/Pre-Rad Value [4]: (0.8)
T-suppressors (OKT8+), Ratio Post-Treat/Pre-Treat Value [4]: (1.31)
“Active” T-lymphocytes [4]: 0.52 ± 0.07 ×10^9/L
“Active” T-lymphocytes, Ratio Post-Rad/Pre-Rad Value [4]: (1.1)
“Active” T-lymphocytes, Ratio Post-Treat/Pre-Treat Value [4]: (2.74)
Percent of Control Tumor Weight Left (Sarcoma 180 tumor; PDR-1 ip, 10 μg/kg): 120%
Mean Tumor Weight Left (Sarcoma 180 tumor; PDR-1 ip, 10 μg/kg): 3.0
Mean Tumor Weight Right (Sarcoma 180 tumor; PDR-1 ip, 10 μg/kg): 2.9
Percent of Control Tumor Weight Left (Sarcoma 180 tumor; PDR-1 ip, 75 μg/kg): 120%
Mean Tumor Weight Left (Sarcoma 180 tumor; PDR-1 ip, 75 μg/kg): 3.0
Percent of Control Tumor Weight Right (Sarcoma 180 tumor; PDR-1 ip, 75 μg/kg): 130%
Mean Tumor Weight Right (Sarcoma 180 tumor; PDR-1 ip, 75 μg/kg): 3.0
Percent of Control Tumor Weight Left (Sarcoma 180 tumor; PDR-1 ip, 250 μg/kg): 92%
Mean Tumor Weight Left (Sarcoma 180 tumor; PDR-1 ip, 250 μg/kg): 2.3
Percent of Control Tumor Weight Right (Sarcoma 180 tumor; PDR-1 ip, 250 μg/kg): 83%
Mean Tumor Weight Right (Sarcoma 180 tumor; PDR-1 ip, 250 μg/kg): 1.9
Percent of Control Tumor Weight Left (Sarcoma 180 tumor; PDR-1 ip, 1000 μg/kg): 52%
Mean Tumor Weight Left (Sarcoma 180 tumor; PDR-1 ip, 1000 μg/kg): 1.3
Percent of Control Tumor Weight Right (Sarcoma 180 tumor; PDR-1 ip, 1000 μg/kg): 43%
Mean Tumor Weight Right (Sarcoma 180 tumor; PDR-1 ip, 1000 μg/kg): 1.0
Percent of Control Tumor Weight Left (Sarcoma 180 tumor; PDR-2 im, 10 μg/kg): 96%
Mean Tumor Weight Left (Sarcoma 180 tumor; PDR-2 im, 10 μg/kg): 2.4
Mean Tumor Weight Right (Sarcoma 180 tumor; PDR-2 im, 10 μg/kg): 2.6
Percent of Control Tumor Weight Left (Sarcoma 180 tumor; PDR-2 im, 75 μg/kg): 96%
Mean Tumor Weight Left (Sarcoma 180 tumor; PDR-2 im, 75 μg/kg): 2.4
Percent of Control Tumor Weight Right (Sarcoma 180 tumor; PDR-2 im, 75 μg/kg): 132%
Mean Tumor Weight Right (Sarcoma 180 tumor; PDR-2 im, 75 μg/kg): 3.3
Percent of Control Tumor Weight Left (Sarcoma 180 tumor; PDR-2 im, 250 μg/kg): 72%
Mean Tumor Weight Left (Sarcoma 180 tumor; PDR-2 im, 250 μg/kg): 1.8
Percent of Control Tumor Weight Right (Sarcoma 180 tumor; PDR-2 im, 250 μg/kg): 48%
Mean Tumor Weight Right (Sarcoma 180 tumor; PDR-2 im, 250 μg/kg): 1.1
Percent of Control Tumor Weight Left (Sarcoma 180 tumor; PDR-2 im, 1000 μg/kg): 48%
Mean Tumor Weight Left (Sarcoma 180 tumor; PDR-2 im, 1000 μg/kg): 1.2
Percent of Control Tumor Weight Right (Sarcoma 180 tumor; PDR-2 im, 1000 μg/kg): 57%
Mean Tumor Weight Right (Sarcoma 180 tumor; PDR-2 im, 1000 μg/kg): 1.3
Tumor growth (Sarcoma 180 tumor; prophylactic ip or im, 250 μg/kg and 1000 μg/kg): inhibited subsequent im tumor growth
Complications: Cardio-Pulm. ([5]; Esophagus, 22 patients): 1
Complications: Mortality ([5]; Esophagus, 22 patients): 0
Complications: Septic ([5]; Esophagus, 22 patients): 1
Complications: Total ([5]; Esophagus, 22 patients): 2
Complications: Cardio-Pulm. ([5]; Lung, 16 patients): 0
Complications: Mortality ([5]; Lung, 16 patients): 0
Complications: Septic ([5]; Lung, 16 patients): 0
Complications: Total ([5]; Lung, 16 patients): 1
Clinical outcome ([5]; human, in vivo): decreased the total number of complications
